Structures can show the parent of a compound that is named as a salt. Where two headings read alike, the source gives them in different places.
Key:
plasmodium berghei = assay: suppression of parasitemia in mice infected with plasmodium berghei; type: in vivo; conditions: for ED50: Plasmodium berghei, sc; for ED50 / Mean % Parasitemia / Mean % Suppression / % died: mice
Experimental: Five representative amidinoureas were tested in mice infected with plasmodium berghei. The five compounds tested are the following:
Groups of 10 mice each were used in seven doses totaling 70 mice per compound. The protozoal infection was induced by intraperitoneal injection of 5,000,000 parasitized blood cells from a donor. The compound was administered subcutaneously in doses ranging from 0.15 to 10 mg. per kg., suspended on 0.5% methacel solution (doses expressed as base). The compound was repeatedly injected on the day of inoculation (day 1), day 2 and day 3. Blood smears were performed on days 4, 5, 6 and 10.
Untreated control but infected mice developed fulminating parasitemia of as high as 35% on day 10 and deaths occurred from day 12 to 14.

LD50 in mice = conditions: mouse, in vivo
[1] = s.c., 1.0 mg/kg on days 1-3, 4th day
[2] = s.c., 1.0 mg/kg on days 1-3, 5th day
[3] = s.c., 1.0 mg/kg on days 1-3, 6th day
[4] = s.c., 1.0 mg/kg on days 1-3, 10th day
[5] = s.c., 2.0 mg/kg on days 1-3, 4th day
[6] = s.c., 2.0 mg/kg on days 1-3, 5th day
[7] = s.c., 2.0 mg/kg on days 1-3, 6th day
[8] = s.c., 2.0 mg/kg on days 1-3, 10th day
[9] = s.c., 10.0 mg/kg on days 1-3, 4th day
[10] = s.c., 10.0 mg/kg on days 1-3, 5th day
[11] = s.c., 10.0 mg/kg on days 1-3, 6th day
[12] = s.c., 10.0 mg/kg on days 1-3, 10th day
[13] = s.c., .15 mg/kg on days 1-3, 4th day
[14] = s.c., .15 mg/kg on days 1-3, 5th day
[15] = s.c., .15 mg/kg on days 1-3, 6th day
[16] = s.c., .15 mg/kg on days 1-3, 10th day
[17] = s.c., .20 mg/kg on days 1-3, 4th day
[18] = s.c., .20 mg/kg on days 1-3, 5th day
[19] = s.c., .20 mg/kg on days 1-3, 6th day
[20] = s.c., .20 mg/kg on days 1-3, 10th day
[21] = s.c., .30 mg/kg on days 1-3, 4th day
[22] = s.c., .30 mg/kg on days 1-3, 5th day
[23] = s.c., .30 mg/kg on days 1-3, 6th day
[24] = s.c., .30 mg/kg on days 1-3, 10th day
[25] = s.c., .50 mg/kg on days 1-3, 4th day
[26] = s.c., .50 mg/kg on days 1-3, 5th day
[27] = s.c., .50 mg/kg on days 1-3, 6th day
[28] = s.c., .50 mg/kg on days 1-3, 10th day

## CCCN=C(NC)NC(=O)Nc1c(C)cccc1C [Compound D, 1-(2,6-dimethylphenyl)-3-N-methyl-N'-propylamidino)urea hydrochloride]
Plasmodium berghei; 96 h, s.c., levels of parasitemia, 4th day, read-out: SED50 (Suppressant Effective Dose50)
  ED50: 0.9 mg/kg
Plasmodium berghei; 120 h, s.c., levels of parasitemia, 5th day, read-out: SED50 (Suppressant Effective Dose50)
  ED50: 1.91 mg/kg
Plasmodium berghei; 144 h, s.c., levels of parasitemia, 6th day, read-out: SED50 (Suppressant Effective Dose50)
  ED50: 2.09 mg/kg
Plasmodium berghei; 240 h, s.c., levels of parasitemia, 10th day, read-out: SED50 (Suppressant Effective Dose50)
  ED50: 4.47 mg/kg
Plasmodium berghei; day 4 to day 10, read-out: HIGHEST SED50
  ED50: 4.47 mg/kg
Plasmodium berghei; day 4 to day 10, read-out: LOWEST SED50
  ED50: 0.9 mg/kg
Plasmodium berghei; factor of change, day 4 to day 10, duration of action
  FACTOR (HIGHEST SED50 ÷ LOWEST SED50): 4.97
Plasmodium berghei; [1]
  Mean % Parasitemia: 2.25%
  Mean % Suppression: 57.1%
Plasmodium berghei; [2]
  Mean % Parasitemia: 6.50%
  Mean % Suppression: 11.0%
Plasmodium berghei; [3]
  Mean % Parasitemia: 6.70%
  Mean % Suppression: 28.0%
Plasmodium berghei; [4]
  Mean % Parasitemia: 22.4%
  Mean % Suppression: 36.9%
Plasmodium berghei; s.c., 1.0 mg/kg on days 1-3, 12th day
  % died: 20%
Plasmodium berghei; s.c., 1.0 mg/kg on days 1-3, 13th day
  % died: 20%
Plasmodium berghei; s.c., 1.0 mg/kg on days 1-3, 14th day
  % died: 40%
Plasmodium berghei; [5]
  Mean % Parasitemia: 1.75%
  Mean % Suppression: 66.6%
Plasmodium berghei; [6]
  Mean % Parasitemia: 3.30%
  Mean % Suppression: 54.8%
Plasmodium berghei; [7]
  Mean % Parasitemia: 4.80%
  Mean % Suppression: 48.4%
Plasmodium berghei; [8]
  Mean % Parasitemia: 20.5%
  Mean % Suppression: 42.3%
Plasmodium berghei; s.c., 2.0 mg/kg on days 1-3, 12th day
  % died: 20%
Plasmodium berghei; s.c., 2.0 mg/kg on days 1-3, 13th day
  % died: 20%
Plasmodium berghei; s.c., 2.0 mg/kg on days 1-3, 14th day
  % died: 20%
Plasmodium berghei; [9]
  Mean % Parasitemia: 0.25%
  Mean % Suppression: 96.2%
Plasmodium berghei; [10]
  Mean % Parasitemia: 0%
  Mean % Suppression: 100.0%
Plasmodium berghei; [11]
  Mean % Parasitemia: 0%
  Mean % Suppression: 100.0%
Plasmodium berghei; [12]
  Mean % Parasitemia: 0%
  Mean % Suppression: 100.0%
Plasmodium berghei; s.c., 10.0 mg/kg on days 1-3, 13th day
  % died: 0%
Plasmodium berghei; s.c., 10.0 mg/kg on days 1-3, 14th day
  % died: 0%
Plasmodium berghei; [13]
  Mean % Parasitemia: 5.00%
  Mean % Suppression: 4.8%
Plasmodium berghei; [14]
  Mean % Parasitemia: 7.40%
  Mean % Suppression: 0%
Plasmodium berghei; [15]
  Mean % Parasitemia: 9.20%
  Mean % Suppression: 1.1%
Plasmodium berghei; [16]
  Mean % Parasitemia: 34.0%
  Mean % Suppression: 4.2%
Plasmodium berghei; s.c., .15 mg/kg on days 1-3, 12th day
  % died: 0%
Plasmodium berghei; s.c., .15 mg/kg on days 1-3, 13th day
  % died: 20%
Plasmodium berghei; s.c., .15 mg/kg on days 1-3, 14th day
  % died: 80%
Plasmodium berghei; [17]
  Mean % Parasitemia: 4.50%
  Mean % Suppression: 14.3%
Plasmodium berghei; [18]
  Mean % Parasitemia: 7.30%
  Mean % Suppression: 0%
Plasmodium berghei; [19]
  Mean % Parasitemia: 9.10%
  Mean % Suppression: 2.2%
Plasmodium berghei; [20]
  Mean % Parasitemia: 30.8%
  Mean % Suppression: 13.2%
Plasmodium berghei; s.c., .20 mg/kg on days 1-3, 12th day
  % died: 40%
Plasmodium berghei; s.c., .20 mg/kg on days 1-3, 13th day
  % died: 60%
Plasmodium berghei; s.c., .20 mg/kg on days 1-3, 14th day
  % died: 100%
Plasmodium berghei; [21]
  Mean % Parasitemia: 4.50%
  Mean % Suppression: 14.3%
Plasmodium berghei; [22]
  Mean % Parasitemia: 7.20%
  Mean % Suppression: 1.4%
Plasmodium berghei; [23]
  Mean % Parasitemia: 8.20%
  Mean % Suppression: 11.8%
Plasmodium berghei; [24]
  Mean % Parasitemia: 26.5%
  Mean % Suppression: 25.4%
Plasmodium berghei; s.c., .30 mg/kg on days 1-3, 12th day
  % died: 0%
Plasmodium berghei; s.c., .30 mg/kg on days 1-3, 13th day
  % died: 0%
Plasmodium berghei; s.c., .30 mg/kg on days 1-3, 14th day
  % died: 60%
Plasmodium berghei; [25]
  Mean % Parasitemia: 3.50%
  Mean % Suppression: 33.3%
Plasmodium berghei; [26]
  Mean % Parasitemia: 7.10%
  Mean % Suppression: 2.7%
Plasmodium berghei; [27]
  Mean % Parasitemia: 7.30%
  Mean % Suppression: 21.5%
Plasmodium berghei; [28]
  Mean % Parasitemia: 24.3%
  Mean % Suppression: 31.5%
Plasmodium berghei; s.c., .50 mg/kg on days 1-3, 12th day
  % died: 20%
Plasmodium berghei; s.c., .50 mg/kg on days 1-3, 13th day
  % died: 40%
Plasmodium berghei; s.c., .50 mg/kg on days 1-3, 14th day
  % died: 80%
LD50 in mice
  LD50: 222 to 366 mg/kg

From patent US4340609A, “Amidinourea derivative veterinary compositions for suppression of parasitemia” (William H. Rorer, Inc., priority 1980, dated 1982)
